Test results: patent US12208088B2 (Genentech, Inc., priority 2018, dated 2025)

These compounds were tested against HPK1 (Homo sapiens (Human), UniProt Q92918) (assay: HPK1 Lantha binding assay ("Lanth")). Conditions: binding assays; Morrison Ki fit.
Procedure, shortened: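 Ki values are from Morrison-equation fitting of 665/615 nm TR-FRET signals, taking enzyme level, tracer level and tracer Kd into account. The assay mix held HPK1 (2 nM), Eu-anti-GST antibody (2 nM) and Tracer222 (15 nM). Incubations were two 1 h steps at 23 °C, on 5-fold serial compound dilutions.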

HPK1, sequence (Q92918 1-346 limits assumed): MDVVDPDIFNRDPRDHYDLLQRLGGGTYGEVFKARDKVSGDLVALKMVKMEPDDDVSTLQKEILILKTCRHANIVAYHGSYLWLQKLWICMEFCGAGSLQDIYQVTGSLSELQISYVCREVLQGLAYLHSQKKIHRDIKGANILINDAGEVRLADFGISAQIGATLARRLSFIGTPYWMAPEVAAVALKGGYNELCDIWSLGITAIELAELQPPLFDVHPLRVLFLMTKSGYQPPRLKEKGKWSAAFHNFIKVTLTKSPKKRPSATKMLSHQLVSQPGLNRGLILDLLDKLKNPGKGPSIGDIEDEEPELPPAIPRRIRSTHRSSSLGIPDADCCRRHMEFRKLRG

| Ki [nM] | Structure (SMILES) |
| --- | --- |
| 251 | CN(C)C(=O)c1c(N)ccc(-c2cnc3c(c2Cl)C2(CCC(N(C)CC(N)=O)C2)CN3)c1F (stereo not drawn) [Compound 75, 6-Amino-3-(3-((2-amino-2-oxoethyl)(methyl)amino)-4′-chloro-1′,2′-dihydrospiro[cyclopentane-1,3′-pyrrolo[2,3-b]pyridin]-5′-yl)-2-fluoro-N,N-dimethylbenzamide] |
| 490 | CN(C)C(=O)c1c(N)ccc(-c2cnc3c(c2Cl)C2(CCC(NCC(N)=O)C2)CN3)c1F (stereo not drawn) [Compound 76, 6-Amino-3-(3-((2-amino-2-oxoethyl)amino)-4′-chloro-1′,2′-dihydrospiro[cyclopentane-1,3′-pyrrolo[2,3-b]pyridin]-5′-yl)-2-fluoro-N,N-dimethylbenzamide] |
| 160 | CN(C)C(=O)c1c(N)ccc(-c2cnc3c(c2)[C@]2(CN3)C[C@H](O)C2)c1F [Compound 77a, 6-Amino-2-fluoro-3-((1r,3r)-3-hydroxy-1′,2′-dihydrospiro[cyclobutane-1,3′-pyrrolo[2,3-b]pyridin]-5′-yl)-N,N-dimethylbenzamide] |
| 217 | CN(C)C(=O)c1c(N)ccc(-c2cnc3c(c2)[C@]2(CN3)C[C@@H](O)C2)c1F [Compound 77b, 6-Amino-2-fluoro-3-((1s,3s)-3-hydroxy-1′,2′-dihydrospiro[cyclobutane-1,3′-pyrrolo[2,3-b]pyridin]-5′-yl)-N,N-dimethylbenzamide] |
| 927 | CN(C)C(=O)c1c(N)ccc(-c2cnc3c(c2)[C@]2(CN3)C[C@](C)(O)C2)c1F [Compound 78a, 6-Amino-2-fluoro-3-((1r,3r)-3-hydroxy-3-methyl-1′,2′-dihydrospiro[cyclobutane-1,3′-pyrrolo[2,3-b]pyridin]-5′-yl)-N,N-dimethylbenzamide] |
| 165 | CN(C)C(=O)c1c(N)ccc(-c2cnc3c(c2)[C@]2(CN3)C[C@@](C)(O)C2)c1F [Compound 78b, 6-Amino-2-fluoro-3-((1s,3s)-3-hydroxy-3-methyl-1′,2′-dihydrospiro[cyclobutane-1,3′-pyrrolo[2,3-b]pyridin]-5′-yl)-N,N-dimethylbenzamide] |
| 659 | CN(C)C(=O)c1c(N)ccc(-c2cnc3c(c2)C2(CNC(=O)C2)CN3)c1F (stereo not drawn) [Compound 79, 6-Amino-2-fluoro-N,N-dimethyl-3-(5-oxo-1′,2′-dihydrospiro[pyrrolidine-3,3′-pyrrolo[2,3-b]pyridin]-5′-yl)benzamide] |
| 97.6 | CO[C@H]1C[C@]2(CNc3ncc(-c4ccc(N)c(C(=O)N(C)C)c4F)c(Cl)c32)C1 [Compound 80a, 6-Amino-3-((1r,3r)-4′-chloro-3-methoxy-1′,2′-dihydrospiro[cyclobutane-1,3′-pyrrolo[2,3-b]pyridin]-5′-yl)-2-fluoro-N,N-dimethylbenzamide] |
| 129 | CO[C@H]1C[C@@]2(CNc3ncc(-c4ccc(N)c(C(=O)N(C)C)c4F)c(Cl)c32)C1 [Compound 80b, 6-Amino-3-((1s,3s)-4′-chloro-3-methoxy-1′,2′-dihydrospiro[cyclobutane-1,3′-pyrrolo[2,3-b]pyridin]-5′-yl)-2-fluoro-N,N-dimethylbenzamide] |
| 208 | CC(=O)NC1CCC2(CNc3ncc(-c4ccc(N)c(C(=O)N(C)C)c4F)c(Cl)c32)C1 (stereo not drawn) [Compound 83, 3-(3-Acetamido-4′-chloro-1′,2′-dihydrospiro[cyclopentane-1,3′-pyrrolo[2,3-b]pyridin]-5′-yl)-6-amino-2-fluoro-N,N-dimethylbenzamide] |
| 48.1 | CN(C)C(=O)c1c(N)ccc(-c2cnc3c(c2Cl)[C@]2(CC[C@H](n4cncn4)C2)CN3)c1F [Compound 85a, 6-Amino-3-((1R,3S)-4′-chloro-3-(1H-1,2,4-triazol-1-yl)-1′,2′-dihydrospiro[cyclopentane-1,3′-pyrrolo[2,3-b]pyridin]-5′-yl)-2-fluoro-N,N-dimethylbenzamide] |
| 149 | CN(C)C(=O)c1c(N)ccc(-c2cnc3c(c2Cl)[C@]2(CC[C@@H](n4cncn4)C2)CN3)c1F [Compound 85c, 6-Amino-3-((1R,3R)-4′-chloro-3-(1H-1,2,4-triazol-1-yl)-1′,2′-dihydrospiro[cyclopentane-1,3′-pyrrolo[2,3-b]pyridin]-5′-yl)-2-fluoro-N,N-dimethylbenzamide] |
| 3.25 | C[C@@H]1C[C@@]12CNc1ncc(-c3ccc(N)c(C(=O)N(C)C)c3F)cc12 [Compound 86c, 6-Amino-2-fluoro-N,N-dimethyl-3-((1R,2R)-2-methyl-1′,2′-dihydrospiro[cyclopropane-1,3′-pyrrolo[2,3-b]pyridin]-5′-yl)benzamide] |
| 358 | CN(C)C(=O)c1c(N)ccc(-c2cnc3c(c2)[C@]2(CN3)C[C@@](O)(C(F)(F)F)C2)c1F [Compound 87a] |
| 126 | CN(C)C(=O)c1c(N)ccc(-c2cnc3c(c2)[C@]2(CN3)C[C@@H](n3cncn3)C2)c1F [Compound 88a] |
| 23.1 | CN(C)C(=O)c1c(N)ccc(-c2cnc3c(c2Cl)[C@]2(CC[C@@H](n4nccn4)C2)CN3)c1F [Compound 89c, 6-Amino-3-((1R,3R)-4′-chloro-3-(2H-1,2,3-triazol-2-yl)-1′,2′-dihydrospiro[cyclopentane-1,3′-pyrrolo[2,3-b]pyridin]-5′-yl)-2-fluoro-N,N-dimethylbenzamide] |
| 51.8 | CN(C)C(=O)c1c(N)ccc(-c2cnc3c(c2Cl)[C@]2(CC[C@H](n4ccnn4)C2)CN3)c1F [Compound 90a] |
| 916 | CC(=O)N1CC2(CNc3ncc(-c4ccc(N)c(C(=O)N(C)C)c4F)cc32)C1 [Compound 93, 3-(1-Acetyl-1′,2′-dihydrospiro[azetidine-3,3′-pyrrolo[2,3-b]pyridin]-5′-yl)-6-amino-2-fluoro-N,N-dimethylbenzamide] |
| 73.6 | CN(C)C(=O)c1c(N)ccc(-c2cnc3c(c2)C2(CN3)CC(=CC#N)C2)c1F (stereo not drawn) [Compound 94a, (s,E)-6-Amino-3-(3-(cyanomethylene)-1′,2′-dihydrospiro[cyclobutane-1,3′-pyrrolo[2,3-b]pyridin]-5′-yl)-2-fluoro-N,N-dimethylbenzamide] |
| 120 | CN(C)C(=O)c1c(N)ccc(-c2cnc3c(c2)[C@]2(CN3)C[C@@H](CC#N)C2)c1F [Compound 95a, 6-Amino-3-((1r,3r)-3-(cyanomethyl)-1′,2′-dihydrospiro[cyclobutane-1,3′-pyrrolo[2,3-b]pyridin]-5′-yl)-2-fluoro-N,N-dimethylbenzamide] |
| 124 | CN(C)C(=O)c1c(N)ccc(-c2cnc3c(c2)[C@]2(CN3)C[C@@H](C#N)C2)c1F [Compound 96a] |
| 50.7 | CN(C)C(=O)c1c(N)ccc(-c2cnc3c(c2)[C@]2(CN3)C[C@@H](C(N)=O)C2)c1F [Compound 97a] |
| 55.8 | CN(C)C(=O)c1c(N)ccc(-c2cnc3c(c2)C2(CN3)CC(=CC(N)=O)C2)c1F (stereo not drawn) [Compound 101, 6-Amino-3-(3-(2-amino-2-oxoethylidene)-1′,2′-dihydrospiro[cyclobutane-1,3′-pyrrolo[2,3-b]pyridin]-5′-yl)-2-fluoro-N,N-dimethylbenzamide] |
| 67 | CN(C)C(=O)c1c(N)ccc(-c2cnc3c(c2)[C@]2(CN3)C[C@H](CC(N)=O)C2)c1F [Compound 102a, 6-Amino-3-((1r,3r)-3-(2-amino-2-oxoethyl)-1′,2′-dihydrospiro[cyclobutane-1,3′-pyrrolo[2,3-b]pyridin]-5′-yl)-2-fluoro-N,N-dimethylbenzamide] |
